Here are results for eleven molecules from article PMC11915375 (ACS Infectious Diseases, 2025).

One test has as its system T. cruzi CA-I/72. The test can be described thus: T. cruzi in vitro assay, C2C12 host cell. Particulars: Trypanosoma cruzi, C2C12, read-out: T. cruzi EC50. The format is cell-based, Trypanosoma cruzi.
Test [1] has as its system T. brucei. The test can be described thus: T. brucei proliferation inhibition assay. Particulars: Trypanosoma brucei, read-out: T. brucei EC50 ± S.D. The format is cell-based, Trypanosoma brucei.
Test [2] deals with Leishmania major amastigotes. The test can be described thus: Leishmania major amastigote assay. The format is cell-based. Conditions: Leishmania major, read-out: L. maj EC50.
Another test has as its system S. mansoni adult worms. The test can be described thus: S. mansoni adult worm phenotypic assay. The format is cell-based, Schistosoma mansoni. Conditions: scale 0-4.
The test system of test [3] is Leishmania major amastigotes. Particulars: read-out: L. maj EC50; 12a, 12b previously reported compounds; cited from earlier work.
Test [4] has as its system T. brucei. Particulars: read-out: T. brucei EC50; assay run at NYU; cited from earlier work.
The next test has as its system T. cruzi. Conditions: read-out: T. cruzi EC50; different host cell line (NIH3T3), assay run at NYU; cited from earlier work.
The next test concerns L. donovani. The test can be described thus: L. donovani in vitro assay. The test is classed as cell-based, Leishmania donovani. Particulars: Leishmania donovani, read-out: L. don EC50, B10R host cell line.

Each structure is given as a SMILES string. Where two headings read alike, the source gives them in different places. Some results are limits rather than exact numbers.

The EC50 is the concentration at which the effect is half-maximal.

Consider `COc1ccc(Nc2cnnc3cc(-c4ccc(S(=O)(=O)N5CCN(C)CC5)cc4)ccc23)cc1Cl` [Compound 17b, N-(3-Chloro-4-methoxyphenyl)-7-(4-((4-methylpiperazin-1-yl)sulfonyl)phenyl)cinnolin-4-amine], for which the EC50 is over 10 µM in the test with T. cruzi CA-I/72, 8.3 ± 0.35 µM in the test on T. brucei [1] and over 1.9 µM in test [2]. Further, in the test on S. mansoni adult worms, the “Adult severity score (10 µM) 5 h” value turned out to be 4.

As for `CN1CCN(S(=O)(=O)c2ccc(-c3ccc4nncc(Nc5ccc(OCc6cccc(F)c6)c(Cl)c5)c4c3)cc2)CC1` [Compound 12a, N-(3-Chloro-4-((3-fluorobenzyl)oxy)phenyl)-6-(4-((4-methylpiperazin-1-yl)sulfonyl)phenyl)cinnolin-4-amine], the EC50 is 1.9 µM in test [3], 0.98 µM in the test with T. brucei [4] and over 50 µM in the test on T. cruzi.

For the molecule `CN1CCN(S(=O)(=O)c2ccc(-c3ccc4c(Nc5ccc(OCc6cccc(F)c6)c(Cl)c5)cnnc4c3)cc2)CC1` [Compound 12b, N-(3-Chloro-4-((3-fluorobenzyl)oxy)phenyl)-7-(4-((4-methylpiperazin-1-yl)sulfonyl)phenyl)cinnolin-4-amine], the EC50 is 2 µM in test [3], 1 µM with T. brucei [4] and 3.1 µM in the test on T. cruzi.

Consider `CN1CCN(S(=O)(=O)c2ccc(-c3ccc4c(Nc5cnccn5)cnnc4c3)cc2)CC1` [Compound 15b, 7-(4-((4-Methylpiperazin-1-yl)sulfonyl)phenyl)-N-(pyrazin-2-yl)cinnolin-4-amine], for which the EC50 in the test with T. cruzi CA-I/72 was 6.5 ± 2.3 µM; with T. brucei [1] it was 9.7 ± 2.1 µM; in test [2], over 22 µM; in the test with L. donovani it was 5.52 µM.

Turning to `COc1ccc(Nc2cnnc3ccc(-c4ccc(S(=O)(=O)N5CCN(C)CC5)cc4)cc23)cc1Cl` [Compound 17a, N-(3-Chloro-4-methoxyphenyl)-6-(4-((4-methylpiperazin-1-yl)sulfonyl)phenyl)cinnolin-4-amine], the EC50 in the test with T. cruzi CA-I/72 is over 10 µM; in the test on T. brucei [1], 1.6 ± 0.36 µM; in test [2] it was over 19 µM; in the test on L. donovani it was 9.3 µM.

As for `CN1CCN(c2ccc(-c3ccc4nncc(Nc5ncc(Cl)cn5)c4c3)cc2)CC1` [Compound 22a, N-(5-Chloropyrimidin-2-yl)-6-(4-(4-methylpiperazin-1-yl)phenyl)cinnolin-4-amine], the EC50 is 0.31 µM with T. cruzi CA-I/72, 0.15 ± 0.068 µM in the test on T. brucei [1], over 4.6 µM in test [2] and over 10 µM with L. donovani.

Regarding `COc1ccc(Nc2cnnc3ccc(-c4ccc(S(=O)(=O)N5CCN(C)CC5)cc4)cc23)nc1` [Compound 19a, N-(5-Methoxypyridin-2-yl)-6-(4-((4-methylpiperazin-1-yl)sulfonyl)phenyl)cinnolin-4-amine], the EC50 with T. cruzi CA-I/72 is 3.8 µM; in the test on T. brucei [1], 1.9 ± 0.073 µM; in test [2], over 20 µM; in the test on L. donovani it was 4.9 µM.

As for `CN1CCCN(S(=O)(=O)c2ccc(-c3ccc4nncc(Nc5ncc(Cl)cn5)c4c3)cc2)CC1` [Compound 33a, N-(5-Chloropyrimidin-2-yl)-6-(4-((4-methyl-1,4-diazepan-1-yl)sulfonyl)phenyl)cinnolin-4-amine], the EC50 with T. cruzi CA-I/72 is 5.3 µM; in the test on T. brucei [1] it was 0.99 ± 0.29 µM; in test [2], 17 µM; with L. donovani it was over 10 µM.

Regarding `CN1CCCN(c2ncc(-c3ccc4nncc(Nc5ccc(OC(F)(F)F)cc5)c4c3)cn2)CC1` [Compound 31a, 6-(2-(4-Methyl-1,4-diazepan-1-yl)pyrimidin-5-yl)-N-(4-(trifluoromethoxy)phenyl)cinnolin-4-amine], the EC50 is over 10 µM in the test with T. cruzi CA-I/72, 0.25 ± 0.11 µM in the test on T. brucei [1], over 20 µM in test [2] and over 10 µM in the test with L. donovani.

As to `CN1CCN(S(=O)(=O)c2ccc(-c3ccc4c(Nc5ncccn5)cnnc4c3)cc2)CC1` [Compound 16b, 7-(4-((4-Methylpiperazin-1-yl)sulfonyl)phenyl)-N-(pyrimidin-2-yl)cinnolin-4-amine], the EC50 is over 10 µM in the test with T. cruzi CA-I/72, 11 ± 1.5 µM with T. brucei [1], over 11 µM in test [2] and over 10 µM in the test with L. donovani.

With `COc1ccc(Nc2cnnc3ccc(-c4cnc(N5CCN(C)CC5)nc4)cc23)cc1` [Compound 27a, N-(4-Methoxyphenyl)-6-(2-(4-methylpiperazin-1-yl)pyrimidin-5-yl)cinnolin-4-amine], the EC50 in the test with T. cruzi CA-I/72 is 4.4 µM; in the test on T. brucei [1], 1.3 ± 0.27 µM; in test [2], over 23 µM; in the test with L. donovani, over 10 µM.
